Test results published in patent US6794397B2, “Substituted nicotinamides and analogs as activators of caspases and inducers of apoptosis and the use thereof” (Cytovia, Inc., priority 2000, dated 2004).
Read-outs that look alike come from different tables or passages of the source.

Legend:
[1] = test system: ZR75-1; test: Caspase cascade activation assay (N-(Ac-DEVD)-N'-ethoxycarbonyl-R110 fluorogenic substrate) in ZR75-1 cells; type: cell-based, Human; settings: for EC50 (nM) caspase potency / EC50: sigmoidal dose-response; for Caspase activity Ratio: ratio of net RFU of test compound to control, 0.16 to 10 μM final; for EC50: read-out: EC50 (nM) caspase potency
Experimental: (§1) Human breast cancer cell lines T47D and ZR75-1 were grown according to media component mixtures designated by American Type Culture Collection +10% FCS (Invitrogen Corporation, Life Technologies Division), in a 5% CO2 −95% humidity incubator at 37° C. T47D and ZR75-1 cells were maintained at a cell density between 30 and 80% confluency at a cell density of 0.1 to 0.6×10^6 cells/ml. Cells were harvested at 600xg and resuspended at 0.65×10^6 cells/ml into appropriate media +10% FCS. An aliquot of 45 μl of cells was added to a well of a 96-well microtiter plate containing 5 μl of a 10% DMSO in RPMI-1640 media solution containing 1.6 to 100 μM of N-(4-methoxy-2-nitrophenyl)-3-pyridinecarboxamide or other test compound (0.16 to 10 μM final). An aliquot of 45 μl of cells was added to a well of a 96-well microtiter plate containing 5 μl of a 10% DMSO in RPMI-1640 media solution without test compound as the control sample. The samples were mixed by agitation and then incubated at 37 C. for 24 h in a 5% CO2 −95% humidity incubator. After incubation, the samples were removed from the incubator and 50 μl of a solution containing 20 μM of N-(Ac-DEVD)-N′-ethoxycarbonyl-R110 (SEQ ID NO: 1) fluorogenic substrate (Cytovia, Inc.; WO99/18856), 20% sucrose (Sigma), 20 mM DTT (Sigma), 200 mM NaCl (Sigma), 40 mM Na PIPES buffer pH 7.2 (Sigma), and 500 μg/ml lysolecithin (Calbiochem) was added. The samples were mixed by agitation and incubated at room temperature. Using a fluorescent plate reader (Model 1420 Wallac Instruments), an initial reading (T=0) was made approximately 1-2 min after addition of the substrate solution, employing excitation at 485 nm and emission at 530 nm, to determine the background fluorescence of the control sample. After the 3 h incubation, the samples were read for fluorescence as above (T=3 h).
(§2) The Relative Fluorescence Unit values (RFU) were used to calculate the sample readings as follows:
(§3) RFU(T=3h)−Control RFU(T=0)=Net RFU(T=3h).
(§4) The activity of caspase cascade activation was determined by the ratio of the net RFU value for N-(4-methoxy-2-nitrophenyl)-3-pyridinecarboxamide or other test compound to that of control samples. The EC50 (nM) was determined by a sigmoidal dose-response calculation (Prism 2.0, GraphPad Software Inc.).

[2] = test system: T47D; test: Caspase cascade activation assay (N-(Ac-DEVD)-N'-ethoxycarbonyl-R110 fluorogenic substrate) in T47D cells; type: cell-based, Human; settings: 24 h incubation; for EC50 (nM) caspase potency / EC50: sigmoidal dose-response; for Caspase activity Ratio: ratio of net RFU of test compound to control, 0.16 to 10 μM final; for EC50: read-out: EC50 (nM) caspase potency
Experimental: as §1, §2, §3, §4

[3] = Homo sapiens, ZR-75-1, 24 h incubation

SMILES	EC50 (nM) caspase potency ([1]; 24 h incubation)	EC50 (nM) caspase potency [2]	EC50 [1, 3]	EC50 ([2]; Homo sapiens)	EC50 ([1]; 24 h incubation)	EC50 [2]	Caspase activity Ratio ([1]; 24 h incubation)	Caspase activity Ratio [2]
COc1ccc(NC(=O)c2cc(Cl)nc(Cl)c2)c([N+](=O)[O-])c1 [Example 12, 2,6-Dichloro-N-(4-methoxy-2-nitrophenyl)-4-pyridinecarboxamide]	Inactive	Inactive					Inactive	Inactive
COc1ccc(NC(=O)c2cnc(Cl)nc2C(F)(F)F)c([N+](=O)[O-])c1 [Example 13, 2-Chloro-4trifluoromethyl-N-(4methoxy-2-nitrophenyl)-5-pyrimidinecarboxamide]	Inactive	Inactive					Inactive	Inactive
COc1ccc(NC(=O)c2ccncc2)c([N+](=O)[O-])c1 [Example 14, N-(4-methoxy-2-nitrophenyl)-4-pyridinecarboxamide]	Inactive	Inactive					Inactive	Inactive
COc1ccc(NC(=O)c2ccc(Cl)nc2Cl)c([N+](=O)[O-])c1 [Example 15, 2,6-Dichloro-N-(4-methoxy-2-nitrophenyl)-3-pyridinecarboxamide]	Inactive	Inactive					Inactive	Inactive
COc1ccc(NC(=O)c2cnc(Cl)c(Cl)c2)c([N+](=O)[O-])c1 [Example 16, 5,6-Dichloro-N-(4-methoxy-2-nitrophenyl)-3-pyridinecarboxamide]	Inactive	Inactive					Inactive	Inactive
O=C(Nc1ccc([N+](=O)[O-])cc1[N+](=O)[O-])c1ccc(Cl)nc1 [Example 17, 6-Chloro-N-(2,4-dinitrophenyl)-3-pyridinecarboxamide]	Inactive	Inactive					Inactive	Inactive
O=C(Nc1cc(F)c(F)cc1[N+](=O)[O-])c1ccc(Cl)nc1 [Example 19, 6-Chloro-N-(4,5-difluoro-2-nitrophenyl)-3-pyridinecarboxamide]			6880 nM	3550 nM			3.8	2.7
COc1ccc(NC(=O)c2ccc(Cl)nc2)c(C)c1 [Example 20, 6-Chloro-N-(4-methoxy-2-methylphenyl)-3-pyridinecarboxamide]	Inactive	Inactive					Inactive	Inactive

Further lines, with some results ahead:

EC50 (nM) caspase potency ([1]; 24 h incubation)	EC50 (nM) caspase potency [2]	EC50 [1, 3]	EC50 ([2]; Homo sapiens)	EC50 ([1]; 24 h incubation)	EC50 [2]	SMILES	Caspase activity Ratio ([1]; 24 h incubation)	Caspase activity Ratio [2]
	Inactive	4670 nM				N#Cc1ccc(NC(=O)c2ccc(Cl)nc2)c([N+](=O)[O-])c1 [Example 21, 6-Chloro-N-(4-cyano-2-nitrophenyl)-3-pyridinecarboxamide]	2.3	Inactive
		295 nM	466 nM			CCOc1ccc(NC(=O)c2ccc(F)nc2)c([N+](=O)[O-])c1 [Example 22, 6-Fluoro-N-(4-ethoxy-2-nitrophenyl)-3-pyridinecarboxamide]	6.6	7.6
				171 nM	608 nM	O=C(Nc1ccc(OC(F)(F)F)cc1[N+](=O)[O-])c1ccc(Cl)nc1 [Example 23, 6-Chloro-N-(2-nitro-4-tifluoromethoxyphenyl)-3-pyridinecarboxamide]	9.9	7.2
Inactive	Inactive					O=C(Nc1ccc(C(=O)c2ccccc2)cc1[N+](=O)[O-])c1ccc(Cl)nc1 [Example 24, 6-Chloro-N-(4-benzoyl-2-nitrophenyl)-3-pyridinecarboxamide]	Inactive	Inactive
		133 nM	345 nM			O=C(Nc1ccc(OCc2ccccc2)cc1[N+](=O)[O-])c1ccc(Cl)nc1 [Example 25, 6-Chloro-N-(4-benzyloxy-2-nitrophenyl)-3-pyridinecarboxamide]	6.6	5.8
		20 nM	42 nM			CCOc1ccc(NC(=O)c2ccc(C)nc2)c([N+](=O)[O-])c1 [Example 26, 6-Methyl-N-(4-ethoxy-2-nitrophenyl)-3-pyridinecarboxamide]	3.2	5.5
Inactive	Inactive					Cc1cc(NC(=O)c2ccc(Cl)nc2)c([N+](=O)[O-])cc1C [Example 27, 6-Chloro-N-(4,5-dimethyl-2-nitrophenyl)-3-pyridinecarboxamide]	Inactive	Inactive
				4510 nM	7330 nM	COc1ccc(NC(=O)c2ccc(Cl)[n+]([O-])c2)c([N+](=O)[O-])c1 [Example 28, 6-Chloro-N-(4-methoxy-2-nitrophenyl)-1-N-oxide-3-pyridinecarboxamide]	5.1	2.4
Inactive	Inactive					CCOc1ccc(N(C)C(=O)c2ccc(Cl)nc2)c([N+](=O)[O-])c1 [Example 30, 6-Chloro-N-(4-ethoxy-2-nitrophenyl)-N-methyl-3-pyridinecarboxamide]	Inactive	Inactive
